Measurements as given in ChEMBL document CHEMBL3585283, “Synthesis and evaluation of a series of quinolinyl trans-cyanostilbene analogs as anticancer agents” (2014).
The source made the active and inactive calls. The calls are words filed in the database; no cut-off is given here.

Legend:
[1] = tested on: MDA-MB-435; test: Antitumor activity against human MDA-MB-435 cells after 48 hrs; assay type: functional; settings: MDA-MB-435, 48 h
[2] = Antitumor activity against human SF295 cells after 48 hrs; assay type: functional; settings: SF-295, 48 h
[3] = Antitumor activity against human HOP92 cells after 48 hrs; assay type: functional; settings: HOP-92, 48 h
[4] = tested on: HCT-15; test: Antitumor activity against human HCT15 cells after 48 hrs; assay type: functional; settings: HCT-15, 48 h
[5] = tested on: NCI-H23; test: Antitumor activity against human NCI-H23 cells after 48 hrs; assay type: functional; settings: NCI-H23, 48 h
[6] = tested on: U-251; test: Antitumor activity against human U251 cells after 48 hrs; assay type: functional; settings: U-251, 48 h
[7] = tested on: SK-MEL-5; test: Antitumor activity against human SK-MEL-5 cells after 48 hrs; assay type: functional; settings: SK-MEL-5, 48 h
[8] = tested on: HOP-62; test: Antitumor activity against human HOP62 cells after 48 hrs; assay type: functional; settings: HOP-62, 48 h
[9] = tested on: UO-31; test: Antitumor activity against human UO31 cells after 48 hrs; assay type: functional; settings: UO-31, 48 h
[10] = tested on: NCI-H226; test: Antitumor activity against human NCI-H226 cells after 48 hrs; assay type: functional; settings: NCI-H226, 48 h
[11] = tested on: SNB-75; test: Antitumor activity against human SNB75 cells after 48 hrs; assay type: functional; settings: SNB-75, 48 h
[12] = tested on: DU-145; test: Antitumor activity against human DU145 cells after 48 hrs; assay type: functional; settings: DU-145, 48 h
[13] = tested on: K562; test: Antitumor activity against human K562 cells after 48 hrs; assay type: functional; settings: K562, 48 h
[14] = tested on: SK-MEL-28; test: Antitumor activity against human SK-MEL-28 cells after 48 hrs; assay type: functional; settings: SK-MEL-28, 48 h
[15] = tested on: OVCAR-5; test: Antitumor activity against human OVCAR5 cells after 48 hrs; assay type: functional; settings: OVCAR-5, 48 h
[16] = tested on: MDA-MB-231; test: Antitumor activity against human MDA-MB-231 cells after 48 hrs; assay type: functional; settings: MDA-MB-231, 48 h
[17] = tested on: M14; test: Antitumor activity against human M14 cells after 48 hrs; assay type: functional; settings: M14, 48 h
[18] = Antitumor activity against human HCC2998 cells after 48 hrs; assay type: functional; settings: HCC 2998, 48 h
[19] = Antitumor activity against human MOLT4 cells after 48 hrs; assay type: functional; settings: MOLT-4, 48 h
[20] = tested on: HT-29; test: Antitumor activity against human HT-29 cells after 48 hrs; assay type: functional; settings: HT-29, 48 h
[21] = tested on: NCI-H522; test: Antitumor activity against human NCI-H522 cells after 48 hrs; assay type: functional; settings: NCI-H522, 48 h
[22] = Antitumor activity against human SF539 cells after 48 hrs; assay type: functional; settings: SF-539, 48 h
[23] = tested on: ACHN; test: Antitumor activity against human ACHN cells after 48 hrs; assay type: functional
[24] = tested on: SR; test: Antitumor activity against human SR cells after 48 hrs; assay type: functional
[25] = tested on: SW-620; test: Antitumor activity against human SW620 cells after 48 hrs; assay type: functional; settings: SW-620, 48 h
[26] = Antitumor activity against human BT549 cells after 48 hrs; assay type: functional; settings: BT-549, 48 h
[27] = tested on: A549; test: Antitumor activity against human A549 cells after 48 hrs; assay type: functional; settings: A549, 48 h
[28] = tested on: EKVX; test: Antitumor activity against human EKVX cells after 48 hrs; assay type: functional, cell-based
[29] = tested on: SN12C; test: Antitumor activity against human SN12C cells after 48 hrs; assay type: functional
[30] = tested on: MDA-MB-468; test: Antitumor activity against human MDA-MB-468 cells after 48 hrs; assay type: functional; settings: MDA-MB-468, 48 h
[31] = tested on: NCI-H460; test: Antitumor activity against human NCI-H460 cells after 48 hrs; assay type: functional; settings: NCI-H460, 48 h
[32] = tested on: MCF7; test: Antitumor activity against human MCF7 cells after 48 hrs; assay type: functional; settings: MCF7, 48 h
[33] = tested on: IGROV-1; test: Antitumor activity against human IGROV1 cells after 48 hrs; assay type: functional; settings: IGROV-1, 48 h
[34] = tested on: SK-MEL-2; test: Antitumor activity against human SK-MEL-2 cells after 48 hrs; assay type: functional; settings: SK-MEL-2, 48 h
[35] = tested on: PC-3; test: Antitumor activity against human PC3 cells after 48 hrs; assay type: functional; settings: PC-3, 48 h
[36] = tested on: T47D; test: Antitumor activity against human T47D cells after 48 hrs; assay type: functional
[37] = tested on: SK-OV-3; test: Antitumor activity against human SKOV3 cells after 48 hrs; assay type: functional; settings: SK-OV-3, 48 h
[38] = tested on: CCRF-CEM; test: Antitumor activity against human CCRF-CEM cells after 48 hrs; assay type: functional
[39] = Antitumor activity against human COLO205 cells after 48 hrs; assay type: functional; settings: COLO 205, 48 h
[40] = tested on: OVCAR-3; test: Antitumor activity against human OVCAR3 cells after 48 hrs; assay type: functional; settings: OVCAR-3, 48 h
[41] = tested on: SNB-19; test: Antitumor activity against human SNB19 cells after 48 hrs; assay type: functional; settings: SNB-19, 48 h
[42] = tested on: OVCAR-8; test: Antitumor activity against human OVCAR8 cells after 48 hrs; assay type: functional; settings: OVCAR-8, 48 h
[43] = tested on: SF-268; test: Antitumor activity against human SF268 cells after 48 hrs; assay type: functional; settings: SF-268, 48 h
[44] = tested on: UACC-257; test: Antitumor activity against human UACC257 cells after 48 hrs; assay type: functional; settings: UACC-257, 48 h
[45] = Antitumor activity against human RPMI8226 cells after 48 hrs; assay type: functional; settings: RPMI-8226, 48 h
[46] = tested on: 786-0; test: Antitumor activity against human 786-0 cells after 48 hrs; assay type: functional; settings: 786-0, 48 h
[47] = Antitumor activity against human LOXIMVI cells after 48 hrs; assay type: functional; settings: LOX IMVI
[48] = tested on: HL-60(TB); test: Antitumor activity against human HL-60(TB) cells after 48 hrs; assay type: functional; settings: HL-60, 48 h
[49] = tested on: CAKI-1; test: Antitumor activity against human Caki1 cells after 48 hrs; assay type: functional; settings: CAKI-1, 48 h
[50] = tested on: HCT-116; test: Antitumor activity against human HCT116 cells after 48 hrs; assay type: functional; settings: HCT-116, 48 h
[51] = Antitumor activity against human RXF393 cells after 48 hrs; assay type: functional; settings: RXF 393, 48 h
[52] = Antitumor activity against human NCI-ADR-RES cells after 48 hrs; assay type: functional
[53] = tested on: A498; test: Antitumor activity against human A498 cells after 48 hrs; assay type: functional; settings: A498, 48 h
[54] = tested on: KM12; test: Antitumor activity against human KM12 cells after 48 hrs; assay type: functional; settings: KM12, 48 h
[55] = tested on: NCI-H322M; test: Antitumor activity against human NCI-H322M cells after 48 hrs; assay type: functional
[56] = tested on: UACC-62; test: Antitumor activity against human UACC62 cells after 48 hrs; assay type: functional; settings: UACC-62, 48 h
[57] = tested on: Malme-3M; test: Antitumor activity against human MALME-3M cells after 48 hrs; assay type: functional
[58] = Antitumor activity against human Hs578T cells after 48 hrs; assay type: functional; settings: Hs-578T
[59] = tested on: TK-10; test: Antitumor activity against human TK10 cells after 48 hrs; assay type: functional; settings: TK-10, 48 h
[60] = tested on: OVCAR-4; test: Antitumor activity against human OVCAR4 cells after 48 hrs; assay type: functional; settings: OVCAR-4, 48 h

COc1cc(/C(C#N)=C/c2ccc3ccccc3n2)cc(OC)c1OC
GI50 [1]: 33 nM | GI50 [2]: 277 nM | GI50 [3]: 736 nM | GI50 [4]: 319 nM | GI50 [5]: 751 nM | GI50 [6]: 355 nM | GI50 [7]: 243 nM | GI50 [8]: 567 nM | GI50 [9]: 762 nM | GI50 [10]: 4.78 µM | GI50 [11]: 182 nM | GI50 [12]: 446 nM | GI50 [13]: 80 nM | GI50 [14]: 518 nM | GI50 [15]: 580 nM | GI50 [16]: 943 nM | GI50 [17]: 173 nM | GI50 [18]: 610 nM | GI50 [19]: 488 nM | GI50 [20]: 240 nM | GI50 [21]: 37.2 nM | GI50 [22]: 197 nM | GI50 [23]: 1040 nM | GI50 [24]: inactive | GI50 [25]: 164 nM | GI50 [26]: 315 nM | GI50 [27]: 375 nM | GI50 [28]: inactive | GI50 [29]: 627 nM | GI50 [30]: 243 nM | GI50 [31]: 361 nM | GI50 [32]: 275 nM | GI50 [33]: 846 nM | GI50 [34]: 483 nM | GI50 [35]: 348 nM | GI50 [36]: 4.76 µM | GI50 [37]: 524 nM | GI50 [38]: 248 nM | GI50 [39]: 198 nM | GI50 [40]: 163 nM | GI50 [41]: 578 nM | GI50 [42]: 446 nM | GI50 [43]: 835 nM | GI50 [44]: 761 nM | GI50 [45]: 297 nM | GI50 [46]: 445 nM | GI50 [47]: 766 nM | GI50 [48]: 223 nM | GI50 [49]: 68 nM | GI50 [50]: 234 nM | GI50 [51]: 271 nM | GI50 [52]: 112 nM | GI50 [53]: 295 nM | GI50 [54]: 350 nM | GI50 [55]: 718 nM | GI50 [56]: 92 nM | GI50 [57]: inactive | GI50 [58]: 689 nM | GI50 [59]: 4.69 µM | GI50 [60]: 1430 nM
